Measured values taken from patent US5047502A, “Gastrin releasing peptide antagonist” (Merck and Co., Inc., priority 1989, dated 1991).
Like-named read-outs stand apart in the source and are kept apart here. Residues, ends and D or L forms follow the SMILES beside them. No end group written: not given here. *: point of attachment. OBn = c1ccc(CO*)cc1; X1 = CCCCCO*; OPr = CCCO*; X2 = CCCCO*

Columns and labels:
GRP receptor = molecular target: T1, GRP receptor (Mus musculus, UniProt P21729); experiment: Binding inhibition of radiolabelled GRP (Procedure A); conditions: for EC50: [Antagonist] reducing specific binding of 7 nM [3H-Phe15] GRP 15-27 to 50%, Swiss 3T3 cell monolayers
T1 construct: Swiss 3T3 fibroblasts were used in these tests as the source of GRP receptor; endogenous in cells; host or cells: Swiss 3T3 fibroblasts (from Dr. K. Brown, Institute of Animal Physiology, Cambridge, U.K.)
T1 sequence (P21729 whole entry): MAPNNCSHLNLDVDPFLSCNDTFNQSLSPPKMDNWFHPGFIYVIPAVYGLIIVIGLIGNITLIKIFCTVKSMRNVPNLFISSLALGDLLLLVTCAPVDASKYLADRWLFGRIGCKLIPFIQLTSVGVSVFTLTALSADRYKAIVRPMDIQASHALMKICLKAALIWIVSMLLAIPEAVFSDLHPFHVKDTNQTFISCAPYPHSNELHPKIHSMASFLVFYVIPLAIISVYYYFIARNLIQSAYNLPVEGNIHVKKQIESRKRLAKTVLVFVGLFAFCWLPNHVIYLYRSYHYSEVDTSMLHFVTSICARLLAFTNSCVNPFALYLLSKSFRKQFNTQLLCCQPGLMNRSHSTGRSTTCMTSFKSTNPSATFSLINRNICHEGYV
Experimental: Swiss 3T3 cells, obtained from Dr. K. Brown (Institute of Animal Physiology, Cambridge, U.K.). The cells were grown to confluency in Costar 12-well plates containing DMEM (Gibco) supplemented with 10% fetal bovine serum, 2 mM glutamine and 1% penicillin-streptomycin. The cells were washed twice with binding buffer [1:1 DMEM:Waymouths MB752/1 medium, plus 1 mg/ml BSA (Fraction V, Calbiochem)]. The antagonist was dissolved in 10 mM HCl, and diluted to the appropriate concentration in binding buffer. The antagonist was then added to the cells, followed by radiolabelled GRP at a final concentration of 7 nM. After 30 minutes incubation at 37° C., the supernatant liquid was removed and the cell monolayer rinsed four times with washing buffer (150 mM NaCl, 20 mM Na2 HPO4, 5 mM KCl, 1.8 mM KH2 PO4, 1 mg/ml BSA). The cells were then lysed with 1 ml/well of lysis buffer (1% Triton X-100, 0.1% BSA), and the solution was aspirated into scintillation vials for counting. Each data point was collected in triplicate.
Binding Inhibition: [Antagonist] which reduces the specific binding of 7 nM [^3 H-Phe^15 ] GRP 15-27 to 50% of the level observed in the absence of antagonist. Assay performed in Swiss 3T3 cell monolayers.

Swiss 3T3 cells [1] = type: cell-based; conditions: for EC50: 3 h
Experimental: Swiss 3T3 cells were grown in monolayer culture in 24-well plates (Costar) in serum-free DMEM for 48 hours, at which time the peptide being tested and 23 nM ^3 H-thymidine were added. […] The cells were harvested with a Skatron filter apparatus, and the filters counted in a scintillation counter. Mitogenic Stimulation: [Agonist] which stimulates uptake of ^3 H-thymidine to 50% of the maximal level caused by [Nle^27 ] GRP 15-27. Assay performed on Swiss 3T3 monolayers.

Swiss 3T3 cells [2] = type: cell-based; conditions: for EC50: 3 h; remark: listed apart in the source
Experimental: Swiss 3T3 cells were grown in monolayer culture in 24-well plates (Costar) in serum-free DMEM for 48 hours, at which time the GRP or a GRP homologue, the antagonist and 23 nM ^3 H-thymidine were added. […] The cells were harvested with a Skatron filter apparatus, and the filters counted in a scintillation counter.
Mitogenic Inhibition: [Antagonist] which reduces the uptake of ^3 H-thymidine caused by 7 nM [Nle^27 ] GRP 15-27 to 50% of the level observed in the absence of antagonist. […] GRP 1-27 as the mitogen. Assay performed on Swiss 3T3 monolayers.

H345 SCLC cells = experiment: Stimulation of Ca2+ release in SCLC (Procedure D); type: cell-based; conditions: 100 nM GRP, read-out: [Ca2+]i in SCLC IC50
Experimental: Following the procedure of Heikkila et al., J. Biol. Chem. 262 16456 (1987), approximately 1×10^8 H345 SCLC cells, maintained in RPMI-1640 (Ro) medium supplemented with selenium, insulin, and transferrin, were harvested by settling and washing with Ro. They were then resuspended in 2 ml Ro, to which 1.2 nmol Fura-2/AM per 10^6 cells was added. After a 15 minute incubation at 37° C., the cells were diluted to 10 ml with Ro and incubated for 1 hour at 37° C. The cells were then centrifuged and resuspended in HEPES-saline (140 mM NaCl, 5 mM KCl, 5 mM glucose, 1 mM CaCl2, 1 mM MgCl2, 20 mM HEPES, pH 7.4) at a density of 2.5-5×10^6 cells/ml. The cells were kept on ice for up to 2 hours before being used. Ca^2+ measurements were performed at 37° C. in an Aminco SPF-500 fluorimeter. The excitation wavelength was 340 nm, the emission wavelength 510 nm. Two ml of cell suspension was periodically resuspended in a 3 ml plastic cuvette. They were equilibrated at 37° C. for at least 5 minutes before data was collected. After a stable baseline was established, a mixture of the compound of interest an 100 nM GRP was added, and data was collected for approximately 5 minutes. At that time, a challenge dose of GRP was added, and data was collected for an additional 5 minutes. […] Baseline fluorescence was measured after the subsequent addition of 40 μl 2M Tris (pH 9.5) and 64 μl 0.2M EGTA.

[3] = assays of example 2 repeated, unit inferred

Molecule: CCCOC(=O)[C@H](CC(C)C)NC(=O)[C@H](Cc1c[nH]cn1)NC(=O)CNC(=O)[C@@H](NC(=O)[C@H](C)NC(=O)[C@H](Cc1c[nH]c2ccccc12)NC(=O)[C@H](Cc1c[nH]cn1)NC(C)=O)C(C)C [AcHisTrpAlaValGlyHisLeu--O(CH2)2 CH3] (Ac-HWAVGHL-OPr)
- IC50 (GRP receptor; [3]): 3.5 nM

Molecule: CCCCOC(=O)[C@H](CC(C)C)NC(=O)[C@H](Cc1c[nH]cn1)NC(=O)CNC(=O)[C@@H](NC(=O)[C@H](C)NC(=O)[C@H](Cc1c[nH]c2ccccc12)NC(=O)[C@H](Cc1c[nH]cn1)NC(C)=O)C(C)C [AcHisTrpAlaValGlyHisLeu--O(CH2)3 CH3] (Ac-HWAVGHL-X2)
- IC50 (GRP receptor; [3]): 6.8 nM

Molecule: CCCCCOC(=O)[C@H](CC(C)C)NC(=O)[C@H](Cc1c[nH]cn1)NC(=O)CNC(=O)[C@@H](NC(=O)[C@H](C)NC(=O)[C@H](Cc1c[nH]c2ccccc12)NC(=O)[C@H](Cc1c[nH]cn1)NC(C)=O)C(C)C [AcHisTrpAlaValGlyHisLeu--O(CH2)4 CH3] (Ac-HWAVGHL-X1)
- IC50 (GRP receptor; [3]): 12.4 nM

Molecule: CC(=O)N[C@@H](Cc1c[nH]cn1)C(=O)N[C@@H](Cc1c[nH]c2ccccc12)C(=O)N[C@@H](C)C(=O)N[C@H](C(=O)NCC(=O)N[C@@H](Cc1c[nH]cn1)C(=O)N[C@@H](CC(C)C)C(=O)OCc1ccccc1)C(C)C [AcHisTrpAlaValGlyHisLeu--OCH2 C6 H5] (Ac-HWAVGHL-OBn)
- IC50 (GRP receptor; [3]): 5.4 nM

Molecule: COC(=O)[C@H](CC(C)C)NC(=O)[C@H](Cc1c[nH]cn1)NC(=O)CNC(=O)[C@@H](NC(=O)[C@H](C)NC(=O)[C@H](Cc1c[nH]c2ccccc12)NC(=O)[C@H](Cc1c[nH]cn1)NC(C)=O)C(C)C [AcHisTrpAlaValGlyHisLeu--OCH3] (Ac-HWAVGHL-OMe)
- IC50 (GRP receptor; [3]): 7.7 nM

Molecule: CCOC(=O)[C@H](CC(C)C)NC(=O)[C@H](Cc1c[nH]cn1)NC(=O)CNC(=O)[C@@H](NC(=O)[C@H](C)NC(=O)[C@H](Cc1c[nH]c2ccccc12)NC(=O)[C@H](Cc1c[nH]cn1)NC(C)=O)C(C)C [N-acetyl His Trp Ala Val Gly His Leu-OCH2 CH3] (Ac-HWAVGHL-OEt)
- IC50 (GRP receptor; average of 6 experiments): 3.9 nM
- Mitogenic Stimulation (Swiss 3T3 cells [1]; at concentrations up to 30 μM): none
- IC50 (Swiss 3T3 cells [2]; average of 2 experiments, read-out: Mitogenic Inhibition IC50): 15 nM
- IC50 (H345 SCLC cells): 400 nM

Molecule: Ac-HWAVGHL-NH2 [Ac--His--Trp--Ala--Val--Gly--His--LeuNH2]
- EC50 (GRP receptor): 2000 nM
- EC50 (Swiss 3T3 cells [1]): > 100000 nM
- EC50 (Swiss 3T3 cells [2]): 3000 nM

Molecule: HWAVGHL-NH2 [His--Trp--Ala--Val--Gly--His--LeuNH2]
- EC50 (GRP receptor): 20000 nM
- EC50 (Swiss 3T3 cells [1]): > 100000 nM
- EC50 (Swiss 3T3 cells [2]): 50000 nM
